Measurements as given in PubChem BioAssay (NCI).
Several values for one entry are separate records, joined by “and”; a condition that tells them apart may be missing. Identical values can stand only once.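 Exposure lasted 48 hours, with cells grown in 96-well plates and compounds tested at five concentrations. Abbreviation: GI50, concentration required for 50% inhibition of growth. TGI: total growth inhibition.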 *1 amine or outer side, *2 acyl side, *3 side chain or, on linkers, in order; H or OH if unused. Where a SMILES comes first, the peptide text is derived from it. [ ]: non-standard residue; d: D form. The star is where a group is joined. ξ: configuration not given here. NMeY = CN[C@@H](Cc1ccc(O)cc1)C(=O)O; Ethylenediamine = C(CN[*:2])N[*:1]; ξNMeL = CNC(CC(C)C)C(=O)O; Cbz = O=C(OCc1ccccc1)*; Lac = C[C@H](O)C(=O)O; ξA = CC(N)C(=O)O

Tests used:
Test in all cases: NCI tumour cell line growth inhibition, 48 h
MCF7 breast = test system: MCF7 breast
UO-31 renal = test system: UO-31 renal
A549 NSCLC = test system: A549 NSCLC
NCI/ADR-RES ovarian = test system: NCI/ADR-RES ovarian
NCI-H226 lung = test system: NCI-H226 lung
LOX IMVI melanoma = test system: LOX IMVI melanoma
IGROV1 ovarian = test system: IGROV1 ovarian
NCI-H522 lung = test system: NCI-H522 lung
T-47D breast = test system: T-47D breast
SK-MEL-5 melanoma = test system: SK-MEL-5 melanoma
UACC-257 melanoma = test system: UACC-257 melanoma
786-0 renal = test system: 786-0 renal
OVCAR-4 ovarian = test system: OVCAR-4 ovarian
MDA-MB-435 = test system: MDA-MB-435
SF-295 CNS = test system: SF-295 CNS
COLO 205 colon = test system: COLO 205 colon
CAKI-1 renal = test system: CAKI-1 renal
M14 melanoma = test system: M14 melanoma
MALME-3M melanoma = test system: MALME-3M melanoma

SMILES | TGI (MCF7 breast) [µM] | TGI (UO-31 renal) [µM] | TGI (A549 NSCLC) [µM] | TGI (NCI/ADR-RES ovarian) [µM] | TGI (NCI-H226 lung) [µM] | TGI (LOX IMVI melanoma) [µM] | TGI (IGROV1 ovarian) [µM] | TGI (NCI-H522 lung) [µM] | TGI (T-47D breast) [µM] | TGI (SK-MEL-5 melanoma) [µM] | TGI (UACC-257 melanoma) [µM] | TGI (786-0 renal) [µM] | TGI (OVCAR-4 ovarian) [µM] | TGI (MDA-MB-435) [µM] | TGI (SF-295 CNS) [µM] | TGI (COLO 205 colon) [µM] | TGI (CAKI-1 renal) [µM] | TGI (M14 melanoma) [µM] | TGI (MALME-3M melanoma) [µM] | GI50 (MALME-3M melanoma)
NC(=O)CN1CC(C2=C(O)CN(CC(N)=O)C2=O)=CC1=O | > 100 | > 100 | > 100 | > 100 | > 100 | > 100 | > 100 | > 100 | > 100 | > 100 | > 100 | > 100 | > 100 | > 100 | > 100 | > 100 | > 100 | > 100 | > 100 | 
COc1ccc(C[C@@H](C(=O)NCCNC(=O)C(CC(C)C)N(C)C(=O)[C@@H]2CCCN2C(=O)[C@H](C)O)N(C)C(=O)[C@@H]2CCCN2C(=O)[C@H](CC(C)C)NC(=O)C(C)NC(=O)OCc2ccccc2)cc1 (some centres not stated) (Cbz-[ξA]LP[NMeY](Me)-{Ethylenediamine-ξNMeL-Pro-Lac}) | > 100 | > 100 | > 100 | > 100 | > 100 | > 100 | > 100 | > 100 | > 100 | > 100 | > 100 | > 100 | > 100 | > 100 | > 100 | > 100 | > 100 | > 100 | > 100 | 
COC(=O)CCC1=NCC(C)(C)O1 | > 10 | > 10 | > 10 | > 10 | > 10 | > 10 | > 10 | > 10 | > 10 | > 10 | > 10 | > 10 | > 10 | > 10 | > 10 | > 10 | > 10 | > 10 | > 10 | 
COC(=O)c1cc(OS(=O)(=O)C(F)(F)F)c(=O)n2c1CCCC2 | > 100 | > 100 | > 100 | > 100 | > 100 | > 100 | > 100 | > 100 | > 100 | > 100 | > 100 | > 100 | > 100 | > 100 | > 100 | > 100 | > 100 | > 100 | > 100 | 
Cc1ccc(/C=C2/N=C(N/N=C\C(O)C(O)C(O)CO)NC2=O)cc1 (configuration not stated) | > 100 | > 100 | > 100 | > 100 | > 100 | > 100 | > 100 | > 100 | > 100 | > 100 | > 100 | > 100 | > 100 | > 100 | > 100 | > 100 | > 100 | > 100 | > 100 | > 100 µM and 42.1 µM
O=C(CC(O)(C(F)(F)F)C(F)(F)Cl)CC(O)(C(F)(F)F)C(F)(F)Cl (configuration not stated) | > 10 | > 10 | > 10 | 9.5 | 6.92 | 7.34 | > 10 | 8.78 | > 10 | 4.35 | 4.59 | > 10 | > 10 | > 10 | 7.91 | 3.07 | > 10 | > 10 | 6.34 | 
CC(C)c1ccc(C2NC(=S)NC3=C2c2ccccc2C3=O)cc1 (configuration not stated) | 23.1 | > 58.2 | > 62.4 | 33.3 | > 64.6 | 35.1 | > 54.6 | 41.9 | 35.5 | 52.8 | > 58.7 | > 60 | 53.8 | 21.4 | > 52.4 | > 59.2 | > 58.5 | > 57 | > 62.9 | 
CN(C)CCNCc1ccc2c(-c3ccccc3)nc3cc(Cl)c(Cl)cc3n12 | 19.1 | 14.7 | 24.3 | 31.4 | 37.5 | 14.9 | 22.6 | 27.8 | 15.1 | 16.4 | 19.9 | 15.2 | 26.7 | 21.9 | 27.7 | 14.1 | 18.9 | 15.3 | 33.1 | 
CC(=O)NC1C(OC(C)C(=O)NC(C(=O)NC(CCC(=O)NCCCNC2c3ccccc3Nc3cccc([N+](=O)[O-])c32)C(N)=O)C(C)C)C(O)C(CO)OC1(C)OCc1ccccc1 (configuration not stated) | 2.85 | 2.73 | 1.94 | 4.76 | 2.95 | 4.6 | 3.2 | 2.37 | 4.16 | 0.405 | 5.14 | 2.35 | 3.64 | 2.77 | 3.23 | 7.77 | 3.05 | 12.2 | 2.69 | 
COc1cccc2c1C1(O)C2CCCCCCCCCC12OCCCO2 (configuration not stated) | > 100 | > 100 | > 100 | > 100 | > 94.2 | > 61.8 | > 100 | > 96.5 | > 100 | > 100 | > 100 | > 100 | > 100 | > 100 | > 86.9 | > 100 | > 100 | > 100 | > 100 | 
O=C1c2c(Br)sc(Br)c2[C@@H](Cl)[C@H]1Cl | 53.5 | 40.4 | 79.7 | > 100 | 36.4 | 51 | 42 | 10.9 | 44.8 | 31.1 | 30.9 | 52.5 | 37.4 | 43.8 | 40.7 | 31.8 | 38.8 | 39.1 | 82.7 | 
CC(C)(C)OC(=O)N1CC(CCl)c2ccc(O)cc21 (configuration not stated) | 5.02 | 6.17 | 11.3 | 3.68 | 4.53 | 3.72 | 13.3 | 2.01 | 12.7 | 2.77 | 5.01 | 12.3 | 1.39 | 4.06 | 18.7 | 4.53 | 11.6 | 3.21 | 3.01 | 
Cc1cccc(NC(=O)O/N=C(\Cl)C(C)C)c1 | 28 | 30.3 | 40.9 | 38.4 | 33.5 | 3.67 | 33.8 | 2.99 | 15.6 | 32.9 | 31.5 | 4.12 | 29.4 | 31.7 | 32.1 | 3.76 | 3.17 | 16.4 | 5.29 | 
O=C1C[C@H](COCc2ccccc2)NC(=O)C[C@H](COCc2ccccc2)NC(=O)C[C@H](COCc2ccccc2)N1 | > 100 | > 100 | > 100 | > 100 | > 100 | > 100 | > 100 | > 100 | > 100 | > 100 | > 100 | > 100 | > 100 | > 100 | 89.2 | > 100 | > 100 | > 100 | > 100 | 
CCOC(=O)Nc1sc2c(c1C#N)CC(C)CC2 (configuration not stated) | 24.5 | 46.1 | 40 | 7.86 | 35.3 | 54.5 | > 100 | 16.9 | > 100 | 16.6 | 42.8 | 40.6 | > 100 | > 100 | > 100 | 18.2 | > 100 | 17.4 | 76.9 | 
O=[N+]([O-])C1=Cc2cc(Cl)ccc2OC1c1cccc2ccccc12 (configuration not stated) | 2.16 | 2.51 | 3.85 | > 22.3 | 4.42 | 0.983 | 2.87 | 2.9 | 2.81 | 2.64 | 3.4 | 1.37 | 3.09 | 5.35 | 6.19 | 6.71 | 1.22 | 3.66 | 2.91 | 
O=C(O)c1nc2ccc(Cl)cc2[nH]c1=O | > 100 | > 100 | > 100 | > 100 | > 100 | > 100 | > 100 | > 100 | > 100 | > 100 | > 100 | > 100 | > 100 | > 100 | > 100 | > 100 | > 100 | > 100 | > 100 | 
CNCCCNC(=S)Cn1cc(C)c(=O)[nH]c1=O | > 92.5 | > 86.7 | > 51.3 | > 100 | > 100 | > 100 | > 96.1 | > 100 | > 100 | > 31.4 | > 59.4 | > 100 | > 100 | > 31.6 | > 54.3 | > 69.9 | 39.4 | > 69.6 | > 100 | 
COC(=O)CN(CC(O)C(NC(C)=O)C(O)C=O)C(=O)OCc1ccccc1 (configuration not stated) | > 100 | > 100 | > 100 | > 100 | > 100 | > 100 | > 100 | > 100 | > 100 | > 100 | > 100 | > 100 | > 100 | > 100 | > 100 | > 100 | > 100 | > 100 | > 100 | 
O/N=C1\CC2(N3CCOCC3)CCC1(c1ccccc1)CC2 | > 100 | > 100 | > 100 | > 100 | > 100 | > 100 | > 100 | > 100 | > 100 | > 100 | > 100 | > 100 | > 100 | > 100 | > 100 | > 100 | > 100 | > 100 | > 100 | 
CN(CCNC(=O)c1c[nH]c2c1ccc1ccccc12)CCNC(=O)c1c[nH]c2c1ccc1ccccc12 | 2.74 | 2.67 | 5.83 | 13.1 | 40.5 | 3.09 | 3.08 | 3.45 | 2.7 | 21.1 | 3.94 | 2.87 | 11.7 | 3.47 | 4.79 | 3.24 | 10.1 | 3.52 | 23 | 
CCCN(CCC)C(=S)N/N=C(/C)c1ccccc1O | > 43.6 | > 100 | > 100 | 5.57 | > 41 | > 100 | 19.3 | 25.5 | > 28.9 | > 41.2 | 27.6 | 26.7 | 32.3 | > 100 | > 100 | 21.8 | > 100 | 18.8 | 28.8 | 
Cc1cc(S(=O)(=O)Nc2nnc3c4ccccc4cnn23)c(S)cc1Cl | > 100 | > 100 | > 100 | > 100 | > 69.3 | > 100 | > 100 | > 100 | > 100 | > 100 | > 100 | > 100 | > 100 | > 100 | > 100 | > 100 | > 100 | > 100 | > 100 | 
CNC(=O)N(CCC#N)CCN(C(=O)N(C)C)c1ccccc1 | > 100 | > 100 | > 100 | > 100 | > 100 | > 100 | > 100 | > 100 | > 100 | > 100 | > 100 | > 100 | > 100 | > 100 | > 100 | > 100 | > 100 | > 100 | > 100 | 
